# According to article PMC2360206 (British Journal of Cancer, 2006):
# Values joined by “and” are separate entries in the source; they are usually repeats but may differ in a detail not shown here. Identical values can stand only once. Like-named read-outs stand apart in the source and are kept apart here.
# Columns and labels:
# [1] = system: Urinary retinol binding protein; assay: Urinary retinol-binding protein, marker of renal tubular damage; type: in vivo, human; conditions: range 0.10–100.0
# Description: In an attempt to understand further the pathogenesis of these biochemical toxicities, three patients were studied more intensively. Urinary retinol-binding protein (RBP), a marker of renal tubular damage was measured in conjunction with functional renal imaging (MAG3 renograms) to estimate renal blood flow pretreatment on days 3 and 14. […] This was associated with bilateral increases in renal parenchymal retention on day 3 on MAG3 scans, which reverted to normal by day 14 (see Figure 1). […] There were no consistent changes in urinary RBP in any of these patients (Table 3).
# [2] = parameters: method as in Pierga et al, 2003; conditions: for 5 days, twice-daily oral schedule; ref Pierga et al, 2003; cited from earlier work
# [3] = Phase I plasma pharmacokinetics in patients; type: in vivo, human; conditions: for Cmax / half-life / AUC(0-inf) / AUC(0-t) / Tmax: human, plasma
# Description: For PK analysis, blood samples (approximately 8 ml each) were collected in tubes with lithium heparin anticoagulant at the following time points: pre-dose and 0.5, 1, 1.5, 2, 4, 8, 12 (pre-second dose), 13, 14 and 24 h (pre-dose if day 2) after dosing on both days 1 and 7 of the first cycle. The samples were then centrifuged at 3000 r.p.m at 4°C for 10 min, the plasma transferred to 2 ml cryovials and frozen at −70°C until analysis.
# Pharmacokinetic (PK) analysis was performed using the trapezoidal method and log-linear regression. The following parameters were determined either by calculation or observation: the observed maximal concentration (Cmax), the time of observed maximal concentration (Tmax), the area under the concentration–time curve calculated by the trapezoidal rule (time 0 to last sample with a quantifiable concentration (AUC (0−tz)) and extrapolated to infinity (AUC(0−∞)), the terminal rate constant, by log-linear regression (λz) and the terminal half-life from λz. The value of AUC(0−∞) was considered unreliable if the terminal area beyond the last quantified sample was greater than 20% of the total AUC(0−∞). Pharmacokinetic (PK) data analysis was carried out using a noncompartmental analysis model with the aid of Kinetica (Innaphase Limited, Amersham, UK).
# [4] = po, 100 mg, Day 1, 100 mg b.i.d. p.o. (n=3), mean, course 1
# [5] = po, 100 mg, Day 1, 100 mg b.i.d. p.o. (n=3), median, course 1
# [6] = po, 100 mg, Day 7, 100 mg b.i.d. p.o. (n=3), mean, course 1
# [7] = po, 100 mg, Day 7, 100 mg b.i.d. p.o. (n=3), median, course 1
# [8] = po, 200 mg, Day 1, 200 mg b.i.d. p.o. (n=6), mean, course 1
# [9] = po, 200 mg, Day 1, 200 mg b.i.d. p.o. (n=6), median, course 1
# [10] = po, 200 mg, Day 7, 200 mg b.i.d. p.o. (n=6), mean, course 1
# [11] = po, 200 mg, Day 7, 200 mg b.i.d. p.o. (n=6), median, course 1
# [12] = po, 800 mg, Day 1, 800 mg b.i.d. p.o. (n=12), mean, course 1
# [13] = po, 800 mg, Day 1, 800 mg b.i.d. p.o. (n=12), median, course 1
# [14] = po, 800 mg, Day 7, 800 mg b.i.d. p.o. (n=8), mean, course 1
# [15] = po, 800 mg, Day 7, 800 mg b.i.d. p.o. (n=8), median, course 1
smiles,measurement,setting,value
CC[C@H](CO)Nc1nc(NCc2ccccc2)c2ncn(C(C)C)c2n1 [Seliciclib],Urinary retinol binding protein,"[1]; Patient 20, Day 3, 800 mg b.i.d.",59.2 mg/mol creatinine
same,Urinary retinol binding protein,"[1]; Patient 20, Day 14, 800 mg b.i.d.",20.8 mg/mol creatinine
same,Urinary retinol binding protein,"[1]; Patient 21, Day 3, 800 mg b.i.d.",44.7 mg/mol creatinine
same,Urinary retinol binding protein,"[1]; Patient 21, Day 14, 800 mg b.i.d.",25.7 mg/mol creatinine
same,Urinary retinol binding protein,"[1]; Patient 22, Day 3, 800 mg b.i.d.",7.9 mg/mol creatinine
same,Urinary retinol binding protein,"[1]; Patient 22, Day 14, 800 mg b.i.d.",40.1 mg/mol creatinine
same,Recommended phase II dose,[2],2500 mg per day
same,mean maximum plasma concentration,[3]; highest dose level (800 mg),approximately 3 μg ml^−1
same,Cmax,"[3]; oral, 800 mg, 800 mg dose level, read-out: mean Cmax",3e+06 ng/mL and 10 µM
same,half-life,"[3]; oral, similar in all dose groups, read-out: terminal (elimination) half-life",2 to 5 h
same,AUC(0-inf),[3]; [4],1920 ng·h/mL
same,AUC(0-t),[3]; [4],1870 ng·h/mL
same,Cmax,"[3]; po, 100 mg, Day 1, 100 mg b.i.d. p.o. (n=3), mean, course 1, read-out: Cmax",248 ng/mL
same,Tmax,"[3]; po, 100 mg, Day 1, 100 mg b.i.d. p.o. (n=3), mean, course 1, read-out: Tmax (converted)",1.87 h
same,half-life,"[3]; po, 100 mg, Day 1, 100 mg b.i.d. p.o. (n=3), mean, course 1, read-out: t1/2",4.45 h
same,AUC(0-inf),[3]; [5],1500 ng·h/mL
same,AUC(0-t),[3]; [5],1370 ng·h/mL
same,Cmax,"[3]; po, 100 mg, Day 1, 100 mg b.i.d. p.o. (n=3), median, course 1, read-out: Cmax",134 ng/mL
same,Tmax,"[3]; po, 100 mg, Day 1, 100 mg b.i.d. p.o. (n=3), median, course 1, read-out: Tmax (converted)",1.02 h
same,half-life,"[3]; po, 100 mg, Day 1, 100 mg b.i.d. p.o. (n=3), median, course 1, read-out: t1/2",4.63 h
same,AUC(0-inf),[3]; [6],2890 ng·h/mL
same,AUC(0-t),[3]; [6],2860 ng·h/mL
same,Cmax,"[3]; po, 100 mg, Day 7, 100 mg b.i.d. p.o. (n=3), mean, course 1, read-out: Cmax",162 ng/mL
same,Tmax,"[3]; po, 100 mg, Day 7, 100 mg b.i.d. p.o. (n=3), mean, course 1, read-out: Tmax (converted)",3.17 h
same,half-life,"[3]; po, 100 mg, Day 7, 100 mg b.i.d. p.o. (n=3), mean, course 1, read-out: t1/2",4.47 h
same,AUC(0-inf),[3]; [7],3040 ng·h/mL
same,AUC(0-t),[3]; [7],3030 ng·h/mL
same,Cmax,"[3]; po, 100 mg, Day 7, 100 mg b.i.d. p.o. (n=3), median, course 1, read-out: Cmax",152 ng/mL
same,Tmax,"[3]; po, 100 mg, Day 7, 100 mg b.i.d. p.o. (n=3), median, course 1, read-out: Tmax (converted)",4 h
same,half-life,"[3]; po, 100 mg, Day 7, 100 mg b.i.d. p.o. (n=3), median, course 1, read-out: t1/2",3.9 h
same,AUC(0-inf),[3]; [8],3030 ng·h/mL
same,AUC(0-t),[3]; [8],2770 ng·h/mL
same,Cmax,"[3]; po, 200 mg, Day 1, 200 mg b.i.d. p.o. (n=6), mean, course 1, read-out: Cmax",179 ng/mL
same,Tmax,"[3]; po, 200 mg, Day 1, 200 mg b.i.d. p.o. (n=6), mean, course 1, read-out: Tmax (converted)",4.65 h
same,half-life,"[3]; po, 200 mg, Day 1, 200 mg b.i.d. p.o. (n=6), mean, course 1, read-out: t1/2",2.93 h
same,AUC(0-inf),[3]; [9],3840 ng·h/mL
same,AUC(0-t),[3]; [9],3080 ng·h/mL
same,Cmax,"[3]; po, 200 mg, Day 1, 200 mg b.i.d. p.o. (n=6), median, course 1, read-out: Cmax",80 ng/mL
same,Tmax,"[3]; po, 200 mg, Day 1, 200 mg b.i.d. p.o. (n=6), median, course 1, read-out: Tmax (converted)",2.78 h
same,half-life,"[3]; po, 200 mg, Day 1, 200 mg b.i.d. p.o. (n=6), median, course 1, read-out: t1/2",2.48 h
same,AUC(0-inf),[3]; [10],4250 ng·h/mL
same,AUC(0-t),[3]; [10],2930 ng·h/mL
same,Cmax,"[3]; po, 200 mg, Day 7, 200 mg b.i.d. p.o. (n=6), mean, course 1, read-out: Cmax",310 ng/mL
same,Tmax,"[3]; po, 200 mg, Day 7, 200 mg b.i.d. p.o. (n=6), mean, course 1, read-out: Tmax (converted)",1.03 h
same,half-life,"[3]; po, 200 mg, Day 7, 200 mg b.i.d. p.o. (n=6), mean, course 1, read-out: t1/2",13 h
same,AUC(0-inf),[3]; [11],3480 ng·h/mL
same,AUC(0-t),[3]; [11],3080 ng·h/mL
same,Cmax,"[3]; po, 200 mg, Day 7, 200 mg b.i.d. p.o. (n=6), median, course 1, read-out: Cmax",303 ng/mL
same,Tmax,"[3]; po, 200 mg, Day 7, 200 mg b.i.d. p.o. (n=6), median, course 1, read-out: Tmax (converted)",1 h
same,half-life,"[3]; po, 200 mg, Day 7, 200 mg b.i.d. p.o. (n=6), median, course 1, read-out: t1/2",3.8 h
same,AUC(0-inf),[3]; [12],53000 ng·h/mL
same,AUC(0-t),[3]; [12],52700 ng·h/mL
same,Cmax,"[3]; po, 800 mg, Day 1, 800 mg b.i.d. p.o. (n=12), mean, course 1, read-out: Cmax",3200 ng/mL
same,Tmax,"[3]; po, 800 mg, Day 1, 800 mg b.i.d. p.o. (n=12), mean, course 1, read-out: Tmax (converted)",2.95 h
same,half-life,"[3]; po, 800 mg, Day 1, 800 mg b.i.d. p.o. (n=12), mean, course 1, read-out: t1/2",3.65 h
same,AUC(0-inf),[3]; [13],57500 ng·h/mL
same,AUC(0-t),[3]; [13],57400 ng·h/mL
same,Cmax,"[3]; po, 800 mg, Day 1, 800 mg b.i.d. p.o. (n=12), median, course 1, read-out: Cmax",3160 ng/mL
same,Tmax,"[3]; po, 800 mg, Day 1, 800 mg b.i.d. p.o. (n=12), median, course 1, read-out: Tmax (converted)",2 h
same,half-life,"[3]; po, 800 mg, Day 1, 800 mg b.i.d. p.o. (n=12), median, course 1, read-out: t1/2",3.87 h
same,AUC(0-inf),[3]; [14],26600 ng·h/mL
same,AUC(0-t),[3]; [14],26500 ng·h/mL
same,Cmax,"[3]; po, 800 mg, Day 7, 800 mg b.i.d. p.o. (n=8), mean, course 1, read-out: Cmax",2770 ng/mL
same,Tmax,"[3]; po, 800 mg, Day 7, 800 mg b.i.d. p.o. (n=8), mean, course 1, read-out: Tmax (converted)",1.65 h
same,half-life,"[3]; po, 800 mg, Day 7, 800 mg b.i.d. p.o. (n=8), mean, course 1, read-out: t1/2",3.83 h
same,AUC(0-inf),[3]; [15],21300 ng·h/mL
same,AUC(0-t),[3]; [15],21300 ng·h/mL
same,Cmax,"[3]; po, 800 mg, Day 7, 800 mg b.i.d. p.o. (n=8), median, course 1, read-out: Cmax",2640 ng/mL
same,Tmax,"[3]; po, 800 mg, Day 7, 800 mg b.i.d. p.o. (n=8), median, course 1, read-out: Tmax (converted)",1.78 h
same,half-life,"[3]; po, 800 mg, Day 7, 800 mg b.i.d. p.o. (n=8), median, course 1, read-out: t1/2",3.48 h
same,Tmax,"[3]; po, all dose levels, oral, read-out: Tmax range (time to peak plasma concentrations)",1 to 4 h
same,Tmax,"[3]; po, all dose levels, oral, read-out: mean Tmax",2.55 h
same,plasma clearance,"[3]; patients, oral",greater than liver blood flow
